From the supplement of paper PMC10307832

Experiments:
Assay in all cases: relative viability (nuclei count vs DMSO), 5 days (fraction); higher = more cells survive
[1] = tested on: NCI-H322M
Procedure, shortened: (§1)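 Relative viability was taken as the ratio of nuclei in treated wells to nuclei in vehicle wells. Lung cancer cell lines in 1536-well plates received compounds by pin tool one day after seeding, either one drug alone or a fixed anchor-drug dose plus five library-drug doses (not always all listed) in √10 steps. Nuclei were counted on 4× images after 5 days of treatment, and values are medians of duplicate plates.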

[2] = tested on: SK-MES-1
Procedure, shortened: as §1

[3] = tested on: NCI-H1915
Procedure, shortened: as §1

[4] = tested on: NCI-H2347
Procedure, shortened: as §1

[5] = tested on: NCI-H520
Procedure, shortened: as §1

[6] = tested on: NCI-H441
Procedure, shortened: as §1

[7] = tested on: NCI-H1563
Procedure, shortened: as §1

[8] = tested on: NCI-H3122
Procedure, shortened: as §1

[9] = tested on: LCLC-103H
Procedure, shortened: as §1

[10] = tested on: NCI-H650
Procedure, shortened: as §1

[11] = tested on: NCI-H1792
Procedure, shortened: as §1

[12] = tested on: NCI-H661
Procedure, shortened: as §1

[13] = tested on: NCI-H1355
Procedure, shortened: as §1

[14] = tested on: NCI-H460
Procedure, shortened: as §1

[15] = tested on: PC-14
Procedure, shortened: as §1

[16] = tested on: RERF-LC-KJ
Procedure, shortened: as §1

[17] = tested on: NCI-H596
Procedure, shortened: as §1

[18] = tested on: NCI-H1755
Procedure, shortened: as §1

[19] = tested on: LXF-289
Procedure, shortened: as §1

[20] = tested on: NCI-H2170
Procedure, shortened: as §1

[21] = tested on: NCI-H1651
Procedure, shortened: as §1

[22] = tested on: NCI-H727
Procedure, shortened: as §1

## C[C@@H]1CN(CC(=O)Nc2ccc3c(c2)Cc2cccc(-c4cc(=O)cc(N5CCOCC5)o4)c2S3)C[C@H](C)O1 + CS(=O)(=O)N1CCN(Cc2cc3nc(-c4cccc5[nH]ncc45)nc(N4CCOCC4)c3s2)CC1 [Pictilisib] (partner 1 µM)
[1]; first compound 0.04 µM
  relative viability: 0.365
[1]; first compound 0.1265 µM
  relative viability: 0.506
[1]; first compound 0.4 µM
  relative viability: 0.452
[1]; first compound 4 µM
  relative viability: 0.565
[2]; first compound 0.04 µM
  relative viability: 0.381
[2]; first compound 0.1265 µM
  relative viability: 0.377
[2]; first compound 0.4 µM
  relative viability: 0.356
[2]; first compound 4 µM
  relative viability: 0.355
[3]; first compound 0.04 µM
  relative viability: 0.888
[3]; first compound 0.1265 µM
  relative viability: 0.961
[3]; first compound 0.4 µM
  relative viability: 0.97
[3]; first compound 4 µM
  relative viability: 0.774
[4]; first compound 0.04 µM
  relative viability: 0.961
[4]; first compound 0.1265 µM
  relative viability: 0.577
[4]; first compound 0.4 µM
  relative viability: 0.747
[4]; first compound 4 µM
  relative viability: 0.313
[5]; first compound 0.04 µM
  relative viability: 0.329
[5]; first compound 0.1265 µM
  relative viability: 0.281
[5]; first compound 0.4 µM
  relative viability: 0.31
[5]; first compound 4 µM
  relative viability: 0.374
[6]; first compound 0.04 µM
  relative viability: 0.526
[6]; first compound 0.1265 µM
  relative viability: 0.447
[6]; first compound 0.4 µM
  relative viability: 0.43
[6]; first compound 4 µM
  relative viability: 0.372
[7]; first compound 0.04 µM
  relative viability: 0.616
[7]; first compound 0.1265 µM
  relative viability: 0.661
[7]; first compound 0.4 µM
  relative viability: 0.702
[7]; first compound 4 µM
  relative viability: 0.711
[8]; first compound 0.04 µM
  relative viability: 0.656
[8]; first compound 0.1265 µM
  relative viability: 0.532
[8]; first compound 0.4 µM
  relative viability: 0.513
[8]; first compound 4 µM
  relative viability: 0.472
[9]; first compound 0.04 µM
  relative viability: 0.547
[9]; first compound 0.1265 µM
  relative viability: 0.557
[9]; first compound 0.4 µM
  relative viability: 0.582
[9]; first compound 4 µM
  relative viability: 0.668
[10]; first compound 0.04 µM
  relative viability: 0.828
[10]; first compound 0.1265 µM
  relative viability: 0.886
[10]; first compound 0.4 µM
  relative viability: 0.89
[10]; first compound 4 µM
  relative viability: 0.806
[11]; first compound 0.04 µM
  relative viability: 0.242
[11]; first compound 0.1265 µM
  relative viability: 0.264
[11]; first compound 0.4 µM
  relative viability: 0.274
[11]; first compound 4 µM
  relative viability: 0.287
[12]; first compound 0.04 µM
  relative viability: 0.408
[12]; first compound 0.1265 µM
  relative viability: 0.381
[12]; first compound 0.4 µM
  relative viability: 0.381
[12]; first compound 4 µM
  relative viability: 0.448
[13]; first compound 0.04 µM
  relative viability: 0.229
[13]; first compound 0.1265 µM
  relative viability: 0.43
[13]; first compound 0.4 µM
  relative viability: 0.418
[13]; first compound 4 µM
  relative viability: 0.331
[14]; first compound 0.04 µM
  relative viability: 0.258
[14]; first compound 0.1265 µM
  relative viability: 0.404
[14]; first compound 0.4 µM
  relative viability: 0.279
[14]; first compound 4 µM
  relative viability: 0.346
[15]; first compound 0.04 µM
  relative viability: 0.685
[15]; first compound 0.1265 µM
  relative viability: 0.629
[15]; first compound 0.4 µM
  relative viability: 0.687
[15]; first compound 4 µM
  relative viability: 0.588
[16]; first compound 0.04 µM
  relative viability: 0.591
[16]; first compound 0.1265 µM
  relative viability: 0.531
[16]; first compound 0.4 µM
  relative viability: 0.523
[16]; first compound 4 µM
  relative viability: 0.487
[17]; first compound 0.04 µM
  relative viability: 0.386
[17]; first compound 0.1265 µM
  relative viability: 0.417
[17]; first compound 0.4 µM
  relative viability: 0.404
[17]; first compound 4 µM
  relative viability: 0.41
[18]; first compound 0.04 µM
  relative viability: 0.381
[18]; first compound 0.1265 µM
  relative viability: 0.386
[18]; first compound 0.4 µM
  relative viability: 0.433
[18]; first compound 4 µM
  relative viability: 0.388
[19]; first compound 0.04 µM
  relative viability: 0.852
[19]; first compound 0.1265 µM
  relative viability: 0.789
[19]; first compound 0.4 µM
  relative viability: 0.78
[19]; first compound 4 µM
  relative viability: 0.792
[20]; first compound 0.1265 µM
  relative viability: 0.343
[20]; first compound 0.4 µM
  relative viability: 0.274
[20]; first compound 4 µM
  relative viability: 0.339
[21]; first compound 0.04 µM
  relative viability: 0.59
[21]; first compound 0.1265 µM
  relative viability: 0.491
[21]; first compound 0.4 µM
  relative viability: 0.612
[21]; first compound 4 µM
  relative viability: 0.568
[22]; first compound 0.04 µM
  relative viability: 0.291
[22]; first compound 0.1265 µM
  relative viability: 0.421
[22]; first compound 0.4 µM
  relative viability: 0.252
[22]; first compound 4 µM
  relative viability: 0.385

## C[C@@H]1CN(CC(=O)Nc2ccc3c(c2)Cc2cccc(-c4cc(=O)cc(N5CCOCC5)o4)c2S3)C[C@H](C)O1 + C[C@@H](Oc1cc(-c2cnn(C3CCNCC3)c2)cnc1N)c1c(Cl)ccc(F)c1Cl [Crizotinib] (partner 1 µM)
[1]; first compound 0.04 µM
  relative viability: 0.599
[1]; first compound 0.1265 µM
  relative viability: 0.863
[1]; first compound 0.4 µM
  relative viability: 1.08
[1]; first compound 4 µM
  relative viability: 0.959
[2]; first compound 0.04 µM
  relative viability: 1.08
[2]; first compound 0.1265 µM
  relative viability: 0.991
[2]; first compound 0.4 µM
  relative viability: 0.917
[2]; first compound 4 µM
  relative viability: 0.774
[3]; first compound 0.04 µM
  relative viability: 0.9
[3]; first compound 0.1265 µM
  relative viability: 0.886
[3]; first compound 0.4 µM
  relative viability: 0.95
[3]; first compound 4 µM
  relative viability: 0.853
[4]; first compound 0.04 µM
  relative viability: 0.784
[4]; first compound 0.1265 µM
  relative viability: 0.754
[4]; first compound 0.4 µM
  relative viability: 0.735
[4]; first compound 4 µM
  relative viability: 0.578
[5]; first compound 0.04 µM
  relative viability: 0.64
[5]; first compound 0.1265 µM
  relative viability: 0.711
[5]; first compound 0.4 µM
  relative viability: 0.497
[5]; first compound 4 µM
  relative viability: 0.534
[6]; first compound 0.04 µM
  relative viability: 0.944
[6]; first compound 0.1265 µM
  relative viability: 0.788
[6]; first compound 0.4 µM
  relative viability: 0.707
[6]; first compound 4 µM
  relative viability: 0.587
[7]; first compound 0.04 µM
  relative viability: 0.852
[7]; first compound 0.1265 µM
  relative viability: 0.849
[7]; first compound 0.4 µM
  relative viability: 0.688
[7]; first compound 4 µM
  relative viability: 0.747
[8]; first compound 0.04 µM
  relative viability: 0.349
[8]; first compound 0.1265 µM
  relative viability: 0.324
[8]; first compound 0.4 µM
  relative viability: 0.264
[8]; first compound 4 µM
  relative viability: 0.282
[9]; first compound 0.04 µM
  relative viability: 1.08
[9]; first compound 0.1265 µM
  relative viability: 1.03
[9]; first compound 0.4 µM
  relative viability: 0.984
[9]; first compound 4 µM
  relative viability: 1.03
[10]; first compound 0.04 µM
  relative viability: 0.433
[10]; first compound 0.1265 µM
  relative viability: 0.753
[10]; first compound 0.4 µM
  relative viability: 0.727
[10]; first compound 4 µM
  relative viability: 0.602
[11]; first compound 0.04 µM
  relative viability: 0.966
[11]; first compound 0.1265 µM
  relative viability: 0.921
[11]; first compound 0.4 µM
  relative viability: 0.959
[11]; first compound 4 µM
  relative viability: 0.932
[12]; first compound 0.04 µM
  relative viability: 1.07
[12]; first compound 0.1265 µM
  relative viability: 1.01
[12]; first compound 0.4 µM
  relative viability: 1.02
[12]; first compound 4 µM
  relative viability: 0.885
[13]; first compound 0.04 µM
  relative viability: 0.955
[13]; first compound 0.1265 µM
  relative viability: 1.07
[13]; first compound 0.4 µM
  relative viability: 1.03
[13]; first compound 4 µM
  relative viability: 1.1
[14]; first compound 0.04 µM
  relative viability: 0.973
[14]; first compound 0.1265 µM
  relative viability: 0.924
[14]; first compound 0.4 µM
  relative viability: 0.971
[14]; first compound 4 µM
  relative viability: 0.662
[15]; first compound 0.04 µM
  relative viability: 0.976
[15]; first compound 0.1265 µM
  relative viability: 0.982
[15]; first compound 0.4 µM
  relative viability: 0.859
[15]; first compound 4 µM
  relative viability: 0.706
[16]; first compound 0.04 µM
  relative viability: 0.861
[16]; first compound 0.1265 µM
  relative viability: 0.779
[16]; first compound 0.4 µM
  relative viability: 0.909
[16]; first compound 4 µM
  relative viability: 0.722
[17]; first compound 0.04 µM
  relative viability: 0.934
[17]; first compound 0.1265 µM
  relative viability: 0.928
[17]; first compound 0.4 µM
  relative viability: 0.983
[17]; first compound 4 µM
  relative viability: 0.964
[18]; first compound 0.04 µM
  relative viability: 0.92
[18]; first compound 0.1265 µM
  relative viability: 0.86
[18]; first compound 0.4 µM
  relative viability: 0.816
[18]; first compound 4 µM
  relative viability: 0.792
[19]; first compound 0.04 µM
  relative viability: 0.777
[19]; first compound 0.1265 µM
  relative viability: 0.877
[19]; first compound 0.4 µM
  relative viability: 0.814
[19]; first compound 4 µM
  relative viability: 0.799
[20]; first compound 0.1265 µM
  relative viability: 1.2
[20]; first compound 0.4 µM
  relative viability: 1.21
[20]; first compound 4 µM
  relative viability: 1.1
[21]; first compound 0.04 µM
  relative viability: 0.842
[21]; first compound 0.1265 µM
  relative viability: 0.859
[21]; first compound 0.4 µM
  relative viability: 0.903
[21]; first compound 4 µM
  relative viability: 0.882
[22]; first compound 0.04 µM
  relative viability: 0.891
[22]; first compound 0.1265 µM
  relative viability: 0.746
[22]; first compound 0.4 µM
  relative viability: 0.927
[22]; first compound 4 µM
  relative viability: 0.624
